These are literature values, as cited in patent publication US20090088578A1, “NUCLEAR MAGNETIC RESONANCE IMAGING OF SELECTIVE SMALL MOLECULE DRUGS AS CONTRAST AGENTS” (priority 2007, published 2009).

SMILES strings stand for the structures.

The target in the data set is T1, aldehyde dehydrogenase 1 (Homo sapiens, UniProt P00352).
T1 sequence (P00352 1-501): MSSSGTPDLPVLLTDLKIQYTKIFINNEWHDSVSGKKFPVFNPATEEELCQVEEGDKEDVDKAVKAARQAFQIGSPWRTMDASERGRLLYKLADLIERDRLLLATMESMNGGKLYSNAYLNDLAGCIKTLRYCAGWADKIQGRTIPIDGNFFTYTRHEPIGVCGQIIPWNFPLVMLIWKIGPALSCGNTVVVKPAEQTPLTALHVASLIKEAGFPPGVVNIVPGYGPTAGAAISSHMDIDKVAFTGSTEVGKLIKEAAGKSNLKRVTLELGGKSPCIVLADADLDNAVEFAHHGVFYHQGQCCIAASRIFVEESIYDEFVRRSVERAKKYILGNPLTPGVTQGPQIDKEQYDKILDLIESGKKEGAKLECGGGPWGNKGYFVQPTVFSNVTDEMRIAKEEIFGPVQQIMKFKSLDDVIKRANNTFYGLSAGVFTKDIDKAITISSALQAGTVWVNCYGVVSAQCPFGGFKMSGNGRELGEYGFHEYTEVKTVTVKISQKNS
The settings on record: one of its two known protein targets.

As to `CCN(CC)CCCC(C)Nc1ccnc2cc(Cl)ccc12` (stereo not shown) [Chloroquine, chloroquine], the “affinity for aldehyde dehydrogenase 1” value is “low affinity”.
